Data taken from PMC2871279 (Nature, 2009).

Tests used:
dvUT [1] = target: T1, dvUT (Nitratidesulfovibrio vulgaris, UniProt Q72CX3); experiment: scintillation proximity saturation binding, Hill fit
T1 sequence (Q72CX3 1-337): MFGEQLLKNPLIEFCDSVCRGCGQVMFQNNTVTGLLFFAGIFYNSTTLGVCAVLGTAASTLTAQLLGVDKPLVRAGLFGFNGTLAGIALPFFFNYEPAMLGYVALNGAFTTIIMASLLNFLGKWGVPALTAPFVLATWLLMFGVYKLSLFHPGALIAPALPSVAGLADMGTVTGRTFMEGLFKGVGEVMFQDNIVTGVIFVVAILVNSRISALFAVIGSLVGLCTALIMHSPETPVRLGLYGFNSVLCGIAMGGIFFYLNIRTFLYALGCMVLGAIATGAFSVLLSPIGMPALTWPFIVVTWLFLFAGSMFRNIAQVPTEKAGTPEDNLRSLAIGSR

dvUT [2] = target: T1, dvUT; experiment: SPA isotopic dilution of […]-urea; assay type: binding
human UT-B = target: T2, human UT-B (Homo sapiens, UniProt Q13336); experiment: […]-urea uptake in Xenopus oocytes; assay type: cell-based; details: read-out: % inhibition at 1 mM
T2 sequence (Q13336 1-389): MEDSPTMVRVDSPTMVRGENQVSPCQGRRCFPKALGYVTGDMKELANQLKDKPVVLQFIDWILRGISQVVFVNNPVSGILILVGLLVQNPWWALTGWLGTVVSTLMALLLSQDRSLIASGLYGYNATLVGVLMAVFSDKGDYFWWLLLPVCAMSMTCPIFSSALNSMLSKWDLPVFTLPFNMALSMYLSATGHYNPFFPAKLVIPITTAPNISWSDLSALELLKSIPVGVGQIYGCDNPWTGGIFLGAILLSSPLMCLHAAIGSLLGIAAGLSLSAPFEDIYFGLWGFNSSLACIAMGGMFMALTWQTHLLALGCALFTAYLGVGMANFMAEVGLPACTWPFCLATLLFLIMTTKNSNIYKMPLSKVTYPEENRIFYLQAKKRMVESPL

dvUT [3] = target: T1, dvUT; experiment: […]-urea uptake in Xenopus oocytes; assay type: cell-based; details: read-out: % inhibition at 1 mM

Row | Compound | Kd (dvUT [1]) | IC50 (dvUT [2]) | inhibition at 1000 µM (human UT-B) | inhibition at 1000 µM (dvUT [3])
1 | NC(N)=O [urea] | 2300 ± 140 µM | 2300 ± 700 µM | – | –
2 | O=C(CCc1ccc(O)cc1)c1c(O)cc(O)cc1O [phloretin] | – | – | 86% | 87%
